Reference: ChEMBL document CHEMBL3046373, “Optimised expression and spectral analysis of the target enzyme CYP51 from Penicillium digitatum with possible new DMI fungicides” (Pest Manag Sci, 2010)
pKd: −log10 of the molar value. ≈ marks a conversion by molar mass, not a printed value.

What was measured:
Penicillium digitatum = experiment: Antifungal activity against Penicillium digitatum after 48 hr; type: functional, organism-based
[1] = target: T1, Cytochrome P450 14alpha-demethylase (Penicillium digitatum, UniProt A1XG20); experiment: Binding affinity to Penicillium digitatum recombinant N-terminal-His6 tagged CYP51 expressed in Escherichia coli BL21(DE3) by spectrophotometric analysis
T1 sequence (A1XG20 whole entry): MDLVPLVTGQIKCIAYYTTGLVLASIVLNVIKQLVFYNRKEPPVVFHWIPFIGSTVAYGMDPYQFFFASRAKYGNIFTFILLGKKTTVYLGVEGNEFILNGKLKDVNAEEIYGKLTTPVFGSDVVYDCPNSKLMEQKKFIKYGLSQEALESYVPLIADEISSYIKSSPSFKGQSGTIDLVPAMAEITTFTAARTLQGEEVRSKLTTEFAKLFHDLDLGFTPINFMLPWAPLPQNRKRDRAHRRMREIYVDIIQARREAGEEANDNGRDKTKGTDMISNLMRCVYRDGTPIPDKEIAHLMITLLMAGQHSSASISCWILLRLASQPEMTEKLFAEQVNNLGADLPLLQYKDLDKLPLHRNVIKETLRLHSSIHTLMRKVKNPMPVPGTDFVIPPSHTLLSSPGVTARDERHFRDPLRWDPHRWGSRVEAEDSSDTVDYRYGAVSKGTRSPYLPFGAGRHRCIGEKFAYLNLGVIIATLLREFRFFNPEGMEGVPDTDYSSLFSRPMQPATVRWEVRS

Row | Compound | EC50 (Penicillium digitatum) | pKd [1]
1 | Nc1nnc(CSCc2ccc(Cl)cc2)s1 | 7.88 µg/mL (≈ 29 µM) | 6.19
2 | c1cc2c3c(cccc3c1)NC(c1cnc[nH]1)N2 | 38.6 µg/mL (≈ 163 µM) | 6.00
3 | NNc1ncncc1-c1ccccc1 [5-PHENYLPYRIMIDIN-4-YLHYDRAZINE] | 10.1 µg/mL (≈ 54.2 µM) | 6.18
4 | COc1ccc2c(c1)SCC(N)=N2 [7-METHOXY-2H-BENZO[B][1,4]THIAZINE-3-AMINE] | 1.18 µg/mL (≈ 6.07 µM) | 6.57
5 | CC(C)(C)C(O)/C(=C\c1ccc(Cl)cc1Cl)n1cncn1 (stereo not given) [DINICONAZOLE] |  | 6.92
6 | CC(C)(C)C(=O)C(Oc1ccc(Cl)cc1)n1cncn1 (stereo not given) [TRIADIMEFON] |  | 6.38
